Laboratory results published in patent publication US6358885B1, “Substituted phenylheterocyclic herbicides” (Mississippi State University, priority 1992, dated 2002).

Tests used:
arrowhead = assay: Test D paddy water application plant response rating 0 to 100; type: in vivo, Sagittaria spp.; details: approx. 21 days
Source text: (§1) Plastic pots were partially filled with silt loam soil. The soil was then saturated with water. […] After planting, water levels were raised to 3 cm above the soil surface and maintained at this level throughout the test. Chemical treatments were formulated in a non-phytotoxic solvent and applied directly to the paddy water. Treated plants and controls were maintained in a greenhouse for approximately 21 days, after which all species were compared to controls and visually evaluated. […] A dash (-) response means no test result.

waterchestnut = assay: as above; type: in vivo, Eleocharis spp.; details: approx. 21 days
Source text: as §1

[1] = Rate 500 g/ha, 0 to 100 scale (0 no effect, 100 complete control)

Row | Compound | Arrowhead plant response rating (arrowhead; Rate 4 g/ha, 0 to 100 scale) | Arrowhead plant response rating (arrowhead; Rate 8 g/ha, 0 to 100 scale) | Arrowhead plant response rating (arrowhead; Rate 16 g/ha, 0 to 100 scale) | Arrowhead plant response rating (arrowhead; Rate 64 g/ha, 0 to 100 scale) | Waterchestnut plant response rating (waterchestnut; Rate 4 g/ha, 0 to 100 scale) | Waterchestnut plant response rating (waterchestnut; Rate 8 g/ha, 0 to 100 scale) | Waterchestnut plant response rating (waterchestnut; Rate 16 g/ha, 0 to 100 scale) | Waterchestnut plant response rating (waterchestnut; Rate 32 g/ha, 0 to 100 scale) | Waterchestnut plant response rating (waterchestnut; Rate 64 g/ha, 0 to 100 scale) | Arrowhead plant response rating (arrowhead; Rate 32 g/ha, 0 to 100 scale) | Arrowhead plant response rating (arrowhead; Rate 125 g/ha, 0 to 100 scale) | Arrowhead plant response rating (arrowhead; Rate 250 g/ha, 0 to 100 scale) | Arrowhead plant response rating (arrowhead; [1]) | Waterchestnut plant response rating (waterchestnut; Rate 125 g/ha, 0 to 100 scale) | Waterchestnut plant response rating (waterchestnut; Rate 250 g/ha, 0 to 100 scale) | Waterchestnut plant response rating (waterchestnut; [1])
1 | Fc1cc(Cl)c(OCCCl)cc1-c1nn2c(c1Cl)CCCC2 [Compound 49] | 0 | 0 | 0 | 0 | 0 | 0 | 0 | 10 | 20 | – | – | – | – | – | – | –
2 | Fc1cc(Cl)ccc1-c1nn2c(c1Br)CCCC2 [Compound 52] | – | – | – | 10 | – | – | – | 0 | 15 | 10 | 40 | 30 | 40 | 25 | 40 | 65
3 | COCN1C(=O)COc2cc(F)c(-c3nn4c(c3Cl)CCCC4)cc21 [Compound 55] | 0 | 0 | 20 | 30 | 0 | 0 | 10 | 15 | 20 | 20 | – | – | – | – | – | –
